This is an account of results in patent US6410527B1, “Method of treating obsessive compulsive disorders, somatoform disorders, dissociative disorders, eating disorders, impulse control disorders, and autism” (Schering Corporation, priority 1998, dated 2002).

Where a name gives a salt, the structure may show the parent alone.

Test [1] concerns patient diagnosed with obsessive-compulsive disorder. Description: Administration of SCH 39166 capsules to a patient with obsessive-compulsive disorder. To be noted: capsules of Example 1 containing 5.0 mg SCH 39166, once a day, six months. It is filed as in vivo, human.
Test [2] concerns patient diagnosed as having autism. As to the kind of experiment: Administration of SCH 39166 capsules to a patient with autism. In kind it is in vivo, human. To be noted: capsules of Example 1 containing 25.0 mg SCH 39166, once a day, six months.

With `CN1CCc2cc(Cl)c(O)cc2[C@H]2c3ccccc3CC[C@@H]21` [SCH 39166, (−)-trans-6,7,7a, 8,9,13b-hexahydro-3-chloro-2-hydroxy-N-methyl-5-H-benzo[d]naphtho{2,1-b}azepine HCl], the “observable symptoms of the disorder” value in test [1] and in test [2] was “reducing or eliminating the observable symptoms of the disorder” throughout.
